Laboratory results from patent US11666608B2 (priority 2020, dated 2023).

Test system: neutrophils isolated from peripheral blood
Assay: Neutrophil activation by E. coli EVs, neutrophil elastase secretion (ELISA)
Format: cell-based
Settings: human neutrophils treated with E. coli EVs and test substance 24 hours, FIG. 8
Description: Specifically, 10 mL of blood was collected in a tube containing an ACD solution, the blood was carefully added over 20 mL of Lymphoprep and centrifuged. After centrifugation, a red blood layer was collected and mixed with 12 mL of dextran, followed by standing at room temperature for 45 minutes. After layer separation, 40 mL of 1×HBSS was added to the supernatant and centrifuged again, and red blood cells were removed with autoclaved Millipore water, and then neutrophils were isolated using a neutrophil isolation kit (MACS). […] As a positive control drug, dexamethasone (Dex) was treated.

## C[C@@H]1C[C@H]2[C@@H]3CCC4=CC(=O)C=C[C@]4(C)[C@@]3(F)[C@@H](O)C[C@]2(C)[C@@]1(O)C(=O)CO [dexamethasone]
  secretion of NE (neutrophil elastase), neutrophil activation indicator: did not inhibit
